The structures appear in SMILES notation.

This is an account of results in patent US10239869B2, “Sulfonamide compounds as voltage-gated sodium channel modulators” (LUPIN LIMITED, priority 2015, dated 2019).

In one data set the target is Nav 1.5 (Homo sapiens (Human), UniProt Q14524). The data set is described as follows: Inhibition of sodium channels, Red Membrane Potential Dye FLIPR assay, veratridine depolarization. Format: cell-based. The settings on record: HEK-293 cells overexpressing the channel; 10 μM.
Nav 1.5, sequence (Q14524 whole entry): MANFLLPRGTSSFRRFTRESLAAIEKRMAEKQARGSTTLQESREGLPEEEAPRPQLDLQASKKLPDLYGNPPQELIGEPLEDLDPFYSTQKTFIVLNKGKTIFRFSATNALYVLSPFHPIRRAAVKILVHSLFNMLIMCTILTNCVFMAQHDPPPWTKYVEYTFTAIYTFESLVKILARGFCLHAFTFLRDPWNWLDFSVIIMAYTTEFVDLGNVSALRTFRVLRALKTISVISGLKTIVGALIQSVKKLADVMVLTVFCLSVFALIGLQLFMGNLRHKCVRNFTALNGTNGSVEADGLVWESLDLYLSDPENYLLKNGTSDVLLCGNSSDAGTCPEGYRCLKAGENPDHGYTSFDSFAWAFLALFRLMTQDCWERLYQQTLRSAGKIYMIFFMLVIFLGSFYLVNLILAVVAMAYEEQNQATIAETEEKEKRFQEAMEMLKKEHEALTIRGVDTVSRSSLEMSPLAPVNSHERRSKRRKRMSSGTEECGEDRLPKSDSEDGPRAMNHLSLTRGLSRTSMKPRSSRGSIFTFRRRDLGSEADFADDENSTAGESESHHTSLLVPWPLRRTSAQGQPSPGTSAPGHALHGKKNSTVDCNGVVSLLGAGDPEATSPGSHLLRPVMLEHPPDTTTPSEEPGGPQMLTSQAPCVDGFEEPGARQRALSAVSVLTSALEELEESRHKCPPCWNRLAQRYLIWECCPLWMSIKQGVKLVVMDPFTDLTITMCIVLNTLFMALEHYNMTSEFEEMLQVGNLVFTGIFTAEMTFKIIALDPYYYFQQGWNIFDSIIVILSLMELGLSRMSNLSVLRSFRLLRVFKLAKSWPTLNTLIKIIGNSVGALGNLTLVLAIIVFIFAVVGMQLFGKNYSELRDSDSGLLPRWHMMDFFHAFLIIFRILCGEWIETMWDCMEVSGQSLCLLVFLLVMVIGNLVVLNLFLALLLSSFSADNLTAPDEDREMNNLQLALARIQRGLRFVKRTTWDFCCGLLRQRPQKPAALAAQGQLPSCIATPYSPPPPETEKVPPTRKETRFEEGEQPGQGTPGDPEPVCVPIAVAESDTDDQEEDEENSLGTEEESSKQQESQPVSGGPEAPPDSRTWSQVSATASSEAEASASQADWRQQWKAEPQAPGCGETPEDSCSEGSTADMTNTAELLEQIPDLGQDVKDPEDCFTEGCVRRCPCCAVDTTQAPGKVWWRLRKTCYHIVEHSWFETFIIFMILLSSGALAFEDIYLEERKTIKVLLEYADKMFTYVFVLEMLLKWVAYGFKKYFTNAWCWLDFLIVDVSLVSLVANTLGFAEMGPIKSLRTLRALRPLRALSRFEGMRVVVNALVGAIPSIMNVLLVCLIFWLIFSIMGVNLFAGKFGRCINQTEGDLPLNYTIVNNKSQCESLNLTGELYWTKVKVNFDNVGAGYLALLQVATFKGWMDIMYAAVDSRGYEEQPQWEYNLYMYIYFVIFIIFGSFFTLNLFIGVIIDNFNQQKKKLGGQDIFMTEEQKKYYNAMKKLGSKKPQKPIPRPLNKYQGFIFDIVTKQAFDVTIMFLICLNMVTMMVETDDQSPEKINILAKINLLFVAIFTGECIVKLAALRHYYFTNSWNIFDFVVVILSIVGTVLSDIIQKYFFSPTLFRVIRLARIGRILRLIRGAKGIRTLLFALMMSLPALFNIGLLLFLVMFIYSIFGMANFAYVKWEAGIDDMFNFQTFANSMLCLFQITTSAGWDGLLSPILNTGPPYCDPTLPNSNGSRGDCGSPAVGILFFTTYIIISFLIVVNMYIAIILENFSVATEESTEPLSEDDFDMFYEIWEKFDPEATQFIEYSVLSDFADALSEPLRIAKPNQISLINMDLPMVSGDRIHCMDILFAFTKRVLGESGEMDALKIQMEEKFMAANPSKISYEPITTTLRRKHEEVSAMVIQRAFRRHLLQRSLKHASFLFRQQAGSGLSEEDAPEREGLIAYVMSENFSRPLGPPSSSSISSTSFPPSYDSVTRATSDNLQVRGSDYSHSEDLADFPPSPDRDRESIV
For `Cn1nccc1-c1cc(C(F)(F)F)ccc1[C@H]1CCOc2cc(S(=O)(=O)Nc3cc(F)ccn3)ccc21` [Example 4, (S&R)—N-(4-Fluoropyridin-2-yl)-4-(2-(1-methyl-1H-pyrazol-5-yl)-4-(trifluoromethyl)phenyl)chroman-7-sulfonamide], the “Nav1.5 % inhibition @ 10 μM” value was 57%.

With `Cn1nccc1-c1cc(C(F)(F)F)ccc1[C@@H]1CCOc2cc(S(=O)(=O)Nc3ccc(F)cn3)ccc21` [Example 5, (S&R)—N-(5-Fluoropyridin-2-yl)-4-(2-(1-methyl-1H-pyrazol-5-yl)-4-(trifluoromethyl)phenyl)chroman-7-sulfonamide], the “Nav1.5 % inhibition @ 10 μM” value was 58%.

Regarding `O=S(=O)(Nc1cccc(F)n1)c1ccc2c(c1)OCC[C@@H]2c1ccc(C(F)(F)F)cc1-c1ccc(F)cc1` [Example 50, (S&R)-4-(4′-Fluoro-5-(trifluoromethyl)-[, 1′-biphenyl]-2-yl)-N-(6-fluoropyridin-2-yl) chromane-7-sulfonamide], the “Nav1.5 % inhibition @ 10 μM” value is recorded as 38%.

For the compound `O=S(=O)(Nc1ncccn1)c1ccc2c(c1)OCC[C@@H]2c1ccc(C(F)(F)F)cc1N1CCOCC1` [Example 119, (S&R)-4-(2-morpholino-4-(trifluoromethyl)phenyl)-N-(pyrimidin-2-yl)chroman-7-sulfonamide], the “Nav1.5 % inhibition @ 10 μM” value is 30%.

For `O=S(=O)(Nc1ncccn1)c1ccc2c(c1)OCC[C@@H]2c1ccc(C(F)(F)F)cc1-c1ccc(F)cn1` [Example-194, (S&R)-4-(2-(5-fluoropyridin-2-yl)-4-(trifluoromethyl)phenyl)-N-(pyrimidin-2-yl)chroman-7-sulfonamide], the “Nav1.5 % inhibition @ 10 μM” value is listed as 65%.

The same data set, now with this note: HEK-293 cells overexpressing the channel; read-out: Nav1.5 IC50 (bound given in μM).
For `O=S1(=O)CCN(c2cc(C(F)(F)F)ccc2[C@H]2CCOc3cc(S(=O)(=O)Nc4ncc(F)cn4)ccc32)CC1` (racemic) [Example-234, (R/S)-4-(2-(1,1-dioxidothiomorpholino)-4-(trifluoromethyl)phenyl)-N-(5-fluoropyrimidin-2-yl)chroman-7-sulfonamide], the IC50 (as a rule, the point on the concentration scale where inhibition reaches its midpoint) is greater than 10 µM.

For `O=S1(=O)CCN(c2cc(C(F)(F)F)ccc2[C@H]2CCOc3cc(S(=O)(=O)Nc4cccc(F)n4)ccc32)CC1` (racemic) [Example-235, (R/S)-4-(2-(1,1-dioxidothiomorpholino)-4-(trifluoromethyl)phenyl)-N-(6-fluoropyridin-2-yl)chroman-7-sulfonamide], the IC50 was greater than 10 µM.

For the compound `O=S1(=O)CCN(c2cc(C(F)(F)F)ccc2[C@H]2CCOc3cc(S(=O)(=O)Nc4ccncn4)ccc32)CC1` (racemic) [Example-237, (R/S)-4-(2-(1,1-dioxidothiomorpholino)-4-(trifluoromethyl)phenyl)-N-(pyrimidin-4-yl)chromane-7-sulfonamide], the IC50 is greater than 10 µM.

Take `Cn1nccc1-c1cc(C(F)(F)F)ccc1[C@@H]1CCOc2cc(S(=O)(=O)Nc3cc(F)ccn3)ccc21` [Example 3, (S&R)—N-(4-Fluoropyridin-2-yl)-4-(2-(1-methyl-1H-pyrazol-5-yl)-4-(trifluoromethyl)phenyl)chroman-7-sulfonamide]: the IC50 was greater than 10 µM.

`Cn1nccc1-c1cc(C(F)(F)F)ccc1[C@@H]1CCOc2cc(S(=O)(=O)Nc3ccncn3)ccc21` [Example 9, (S&R)-4-(2-(1-Methyl-1H-pyrazol-5-yl)-4-(trifluoromethyl)phenyl)-N-(pyrimidin-4-yl) chroman-7-sulfonamide]: the IC50 is greater than 10 µM.

Regarding `Cn1nccc1-c1cc(C(F)(F)F)ccc1[C@H]1CCOc2cc(S(=O)(=O)Nc3ccncn3)ccc21` [Example 10, (S&R)-4-(2-(1-Methyl-1H-pyrazol-5-yl)-4-(trifluoromethyl)phenyl)-N-(pyrimidin-4-yl) chroman-7-sulfonamide], the IC50 is greater than 10 µM.

Regarding `Cn1nccc1-c1cc(C(F)(F)F)ccc1[C@H]1CCOc2cc(S(=O)(=O)Nc3cnccn3)ccc21` [Example 12, (S&R)-4-(2-(1-Methyl-1H-pyrazol-5-yl)-4-(trifluoromethyl)phenyl)-N-(pyrazin-2-yl) chromane-7-sulfonamide], the IC50 was greater than 10 µM.

For the compound `O=S(=O)(Nc1ncc(F)cn1)c1ccc2c(c1)OCC[C@H]2c1ccc(C(F)(F)F)cc1-c1ccc(F)nc1` [Example 37, (S&R)-4-(2-(6-Fluoropyridin-3-yl)-4-(trifluoromethyl)phenyl)-N-(5-fluoropyrimidin-2-yl) chromane-7-sulfonamide], the IC50 was greater than 10 µM.

As for `O=S(=O)(Nc1ncc(F)cn1)c1ccc2c(c1)OCC[C@@H]2c1ccc(C(F)(F)F)cc1-c1ccc(F)nc1` [Example 38, (S&R)-4-(2-(6-Fluoropyridin-3-yl)-4-(trifluoromethyl)phenyl)-N-(5-fluoropyrimidin-2-yl) chromane-7-sulfonamide], the IC50 is greater than 10 µM.

As for `O=S(=O)(Nc1ncc(F)cn1)c1ccc2c(c1)OCC[C@H]2c1ccc(C(F)(F)F)cc1-c1ccc(F)cc1` [Example 45, (S&R)-4-(4′-Fluoro-5-(trifluoromethyl)-[1,1′-biphenyl]-2-yl)-N-(5-fluoropyrimidin-2-yl) chromane-7-sulfonamide], the IC50 was greater than 10 µM.

For the compound `O=S(=O)(Nc1ncc(F)cn1)c1ccc2c(c1)OCC[C@@H]2c1ccc(C(F)(F)F)cc1-c1ccc(F)cc1` [Example 46, (S&R)-4-(4′-Fluoro-5-(trifluoromethyl)-[1,1′-biphenyl]-2-yl)-N-(5-fluoropyrimidin-2-yl) chromane-7-sulfonamide], the IC50 was greater than 10 µM.

For `O=S(=O)(Nc1ccncn1)c1ccc2c(c1)OCC[C@@H]2c1ccc(C(F)(F)F)cc1-c1ccc(F)cc1` [Example 48, (S&R)-4-(4′-Fluoro-5-(trifluoromethyl)-[1,1′-biphenyl]-2-yl)-N-(pyrimidin-4-yl)chromane-7-sulfonamide], the IC50 is greater than 10 µM.

As to `O=S(=O)(Nc1cccc(F)n1)c1ccc2c(c1)OCC[C@H]2c1ccc(C(F)(F)F)cc1-c1ccc(F)cc1` [Example 49, (S&R)-4-(4′-Fluoro-5-(trifluoromethyl)-[, 1′-biphenyl]-2-yl)-N-(6-fluoropyridin-2-yl) chromane-7-sulfonamide], the IC50 is greater than 10 µM.

Regarding `O=S(=O)(Nc1ncccn1)c1ccc2c(c1)OCC[C@H]2c1ccc(C(F)(F)F)cc1-n1ccnn1` [Example 51, (S&R)-4-(2-(1H-1,2,3-Triazol-1-yl)-4-(trifluoromethyl)phenyl)-N-(pyrimidin-2-yl)chromane-7-sulfonamide], the IC50 is greater than 10 µM.

For `O=S(=O)(Nc1ncccn1)c1ccc2c(c1)OCC[C@@H]2c1ccc(C(F)(F)F)cc1-n1ccnn1` [Example 52, (S&R)-4-(2-(1H-1,2,3-Triazol-1-yl)-4-(trifluoromethyl)phenyl)-N-(pyrimidin-2-yl)chromane-7-sulfonamide], the IC50 is greater than 10 µM.

On to `O=S(=O)(Nc1ncc(F)cn1)c1ccc2c(c1)OCC[C@H]2c1ccc(C(F)(F)F)cc1-n1ccnn1` [Example 55, (S&R)-4-(2-(1H-1,2,3-Triazol-1-yl)-4-(trifluoromethyl)phenyl)-N-(5-fluoropyrimidin-2-yl) chromane-7-sulfonamide], for which the IC50 is greater than 10 µM.

Consider `O=S(=O)(Nc1ncc(F)cn1)c1ccc2c(c1)OCC[C@@H]2c1ccc(C(F)(F)F)cc1-n1ccnn1` [Example 56, (S&R)-4-(2-(1H-1,2,3-Triazol-1-yl)-4-(trifluoromethyl)phenyl)-N-(5-fluoropyrimidin-2-yl) chromane-7-sulfonamide], for which the concentration for half-maximal inhibition (IC50) is greater than 10 µM.

As to `O=S(=O)(Nc1ccncn1)c1ccc2c(c1)OCC[C@H]2c1ccc(C(F)(F)F)cc1-n1ccnn1` [Example 57, (S&R)-4-(2-(1H-1,2,3-Triazol-1-yl)-4-(trifluoromethyl)phenyl)-N-(pyrimidin-4-yl)chromane-7-sulfonamide], the IC50 is greater than 10 µM.

Regarding `O=S(=O)(Nc1ccncn1)c1ccc2c(c1)OCC[C@@H]2c1ccc(C(F)(F)F)cc1-n1ccnn1` [Example 58, (S&R)-4-(2-(1H-1,2,3-Triazol-1-yl)-4-(trifluoromethyl)phenyl)-N-(pyrimidin-4-yl)chromane-7-sulfonamide], the IC50 was greater than 10 µM.

Turning to `O=S(=O)(Nc1cccc(F)n1)c1ccc2c(c1)OCC[C@H]2c1ccc(C(F)(F)F)cc1-n1ccnn1` [Example 59, (S&R)-4-(2-(1H-1,2,3-Triazol-1-yl)-4-(trifluoromethyl)phenyl)-N-(6-fluoropyridin-2-yl) chromane-7-sulfonamide], the IC50 was greater than 10 µM.

As for `O=S(=O)(Nc1cccc(F)n1)c1ccc2c(c1)OCC[C@@H]2c1ccc(C(F)(F)F)cc1-n1ccnn1` [Example 60, (S&R)-4-(2-(1H-1,2,3-Triazol-1-yl)-4-(trifluoromethyl)phenyl)-N-(6-fluoropyridin-2-yl) chromane-7-sulfonamide], the IC50 is greater than 10 µM.

Take `O=S(=O)(Nc1ncccn1)c1ccc2c(c1)OCC[C@H]2c1ccc(C(F)(F)F)cc1N1CCOCC1` [Example 118, (S&R)-4-(2-morpholino-4-(trifluoromethyl)phenyl)-N-(pyrimidin-2-yl)chroman-7-sulfonamide]: the IC50 is greater than 10 µM.

With `O=S(=O)(Nc1ncccn1)c1ccc2c(c1)OCC[C@H]2c1ccc(C(F)(F)F)cc1-c1ccc(F)cn1` [Example-193, (S&R)-4-(2-(5-fluoropyridin-2-yl)-4-(trifluoromethyl)phenyl)-N-(pyrimidin-2-yl)chroman-7-sulfonamide], the IC50 was greater than 10 µM.

As to `Cc1ccc(-c2cc(C(F)(F)F)ccc2[C@@H]2CCOc3cc(S(=O)(=O)Nc4ncccn4)ccc32)cn1` [Example-201, (S)-4-(2-(6-methylpyridin-3-yl)-4-(trifluoromethyl)phenyl)-N-(pyrimidin-2-yl)chromane-7-sulfonamide], the IC50 was greater than 10 µM.

With `Cc1ccc(-c2cc(C(F)(F)F)ccc2[C@H]2CCOc3cc(S(=O)(=O)Nc4ncccn4)ccc32)cn1` [Example-202, (R)-4-(2-(6-methylpyridin-3-yl)-4-(trifluoromethyl)phenyl)-N-(pyrimidin-2-yl)chroman-7-sulfonamide], the concentration for half-maximal inhibition (IC50) is greater than 10 µM.

Turning to `O=S1(=O)CCN(c2cc(C(F)(F)F)ccc2[C@H]2CCOc3cc(S(=O)(=O)Nc4ncccn4)ccc32)CC1` [Example-233, (S&R)-4-(2-(1,1-dioxidothiomorpholino)-4-(trifluoromethyl)phenyl)-N-(pyrimidin-2-yl)chroman-7-sulfonamide], the IC50 is greater than 10 µM.
